Reference: patent US6781000B1, “Alpha-ketoamide inhibitors of 20S proteasome” (CV Theurapeutics, Inc., priority 1998, dated 2004)

Biological target: T1, chymotrypsin-like activity of 20S proteasome (Bos taurus, UniProt Q2TBX6+Q32KL2)
T1 construct: was purified to homogeneity from bovine brain according to published methods; from tissue; host or cells: bovine brain
Assay: 20S proteasome chymotryptic activity inhibition assay (Suc-Leu-Leu-Val-Tyr-AMC cleavage)
Format: biochemical
Conditions: 2 μg 20S proteasome from bovine brain, 50 μM fluorogenic substrate, 15 minutes at 37° C., pH7.5
Method: Compounds of this invention prepared according to the method of Example 1 were tested as follows. The 20S catalytic subunit of the proteasome (also known as the multicatalytic proteinase complex) was purified to homogeneity from bovine brain according to published methods (Wilk S. and Orlowski,M 1983, 40 842 J.Neurochem). The chymotryptic activity of the complex is measured by the increase in fluorescence following cleavage of the substrate peptide succinyl-leucine-leucine-valine-tyrosine-7-amino-4methyl coumarin. The standard in vitro assay consists of 2 μg 20S proteasome, 0.1-100 μg/ml proteasome inhibitor in 200 μl 50 mM HEPES, containing 0.1% sodium dodecyl sulphate, pH7.5. The proteolytic reaction is initiated by the addition of 50 μM flourogenic peptide substrate and allowed to progress for 15 minutes at 37° C. The reaction is terminated by the addition of 100 μL of 100 mM acetate buffer, pH4.0. The rate of proteolysis is directly proportional to the amount of liberated aminomethylcoumarin which is measured by fluorescent spectroscopy (EX 370 nm, EM 430 nm).

SMILES	IC50 for the inhibition of the chymotrypsin-like activity of 20S proteasome [µg/mL]	IC50 [µM]
CC(C)CC(NC(=O)C(=O)Cc1c[nH]c2ccccc12)C(=O)NC(CC(C)C)C(=O)NCC(=O)NCc1ccccc1 (centres unmarked) [Compound 9]	>10	
CC(C)CC(NC(=O)C(CC1CCCCC1)NC(=O)C(=O)Cc1c[nH]c2ccccc12)C(=O)NC(C)C(=O)O (centres unmarked) [Compound 78]	>10	
CC(C)CC(NC(=O)C(CC1CCCCC1)NC(=O)C(=O)Cc1c[nH]c2ccccc12)C(=O)NC(CCC(=O)O)C(=O)O (centres unmarked) [Compound 160]	>10	
CCCCC(NC(=O)C(CC(C)C)NC(=O)C(C)NC(=O)C(=O)Cc1c[nH]c2ccccc12)C(=O)O (centres unmarked) [Compound 124]	>10	
CCC(C)C(NC(=O)C(=O)Cc1c[nH]c2ccccc12)C(=O)NC(CC(C)C)C(=O)NC(C)C(=O)O (centres unmarked) [Compound 77]		> 20
CC(C)CC(NC(=O)C(=O)Cc1c[nH]c2ccccc12)C(=O)NC(CC(C)C)C(=O)NC(C(=O)O)C(C)C (centres unmarked) [Compound 32]	>10	
CCCCC(NC(=O)C(CC(C)C)NC(=O)CCNC(=O)C(=O)Cc1c[nH]c2ccccc12)C(=O)O (centres unmarked) [Compound 120]	>10	
CC(C)CC(NC(=O)C(NC(=O)C(=O)Cc1c[nH]c2ccccc12)C(C)O)C(=O)NC(CO)C(=O)O (centres unmarked) [Compound 93]	>10	
CCCCC(NC(=O)C(CC(C)C)NC(=O)C(CCC)NC(=O)C(=O)Cc1c[nH]c2ccccc12)C(=O)O (centres unmarked) [Compound 127]		> 18.9
CCC(C)C(NC(=O)C(CC(C)C)NC(=O)C(CC(C)C)NC(=O)C(=O)Cc1c[nH]c2ccccc12)C(=O)O (centres unmarked) [Compound 29]	>10	
CC(C)CC(NC(=O)C(NC(=O)C(=O)Cc1c[nH]c2ccccc12)C(C)C)C(=O)NC(C)C(=O)O (centres unmarked) [Compound 74]	>10	
CC(C)CC(NC(=O)C(CC(C)C)NC(=O)C(CC(C)C)NC(=O)C(=O)Cc1c[nH]c2ccccc12)C(=O)O (centres unmarked) [Compound 33]	>10	
CC(C)CC(NC(=O)C(=O)Cc1ccccc1)C(=O)NC(CC(C)C)C(=O)NC(Cc1ccccc1)C(=O)O (centres unmarked) [Compound 13]	>10	
CC(C)C(NC(=O)C(NC(=O)C(NC(=O)C(=O)Cc1c[nH]c2ccccc12)C(C)C)C(C)C)C(=O)O (centres unmarked) [Compound 203]	>10	
CCC(C)C(NC(=O)C(CC(C)C)NC(=O)C(CC(C)C)NC(=O)C(=O)Cc1c[nH]c2ccccc12)C(=O)O (centres unmarked) [Compound 24]	>10	
CC(C)CC(NC(=O)CNC(=O)C(=O)Cc1c[nH]c2ccccc12)C(=O)NC(C)C(=O)O (centres unmarked) [Compound 67]	>10	
CCC(C)C(NC(=O)C(=O)Cc1c[nH]c2ccccc12)C(=O)NC(CC(C)C)C(=O)NC(C(=O)O)C(C)C (centres unmarked) [Compound 47]	>10	
CC(C)CC(NC(=O)CCNC(=O)C(=O)Cc1c[nH]c2ccccc12)C(=O)NC(C)C(=O)O (centres unmarked) [Compound 68]	>10	
CC(C)C[C@@H](NC(=O)[C@H](CC(=O)O)NC(=O)C(=O)Cc1c[nH]c2ccccc12)C(=O)NCC(=O)O [Compound 58]		> 20.5
CCCCC(NC(=O)C(CC(C)C)NC(=O)C(NC(=O)C(=O)Cc1c[nH]c2ccccc12)C(C)C)C(=O)O (centres unmarked) [Compound 126]	>10	
CCC(C)C(NC(=O)C(CC(C)C)NC(=O)C(CC(C)C)NC(=O)C(=O)Cc1c[nH]c2ccccc12)C(=O)O (centres unmarked) [Compound 19]	>10	
CC(C)CC(NC(=O)C(C)NC(=O)C(=O)Cc1c[nH]c2ccccc12)C(=O)NC(CO)C(=O)O (centres unmarked) [Compound 94]	>10	
CC(C)CC(NC(=O)C(CC(=O)O)NC(=O)OCc1c[nH]c2ccccc12)C(=O)NC(C)C(=O)O (centres unmarked) [Compound 73]	>10	
CC(C)CC(NC(=O)CNC(=O)C(=O)Cc1c[nH]c2ccccc12)C(=O)NC(CO)C(=O)O (centres unmarked) [Compound 89]	>10	
CC(C)CC(NC(=O)CNC(=O)C(=O)Cc1c[nH]c2ccccc12)C(=O)NC(CC(=O)O)C(=O)O (centres unmarked) [Compound 134]	>10	
CC(C)C(NC(=O)C(NC(=O)C(Cc1ccc(O)cc1)NC(=O)C(=O)Cc1c[nH]c2ccccc12)C(C)C)C(=O)O (centres unmarked) [Compound 202]	>10	
CCC(C)C(NC(=O)C(CC(C)C)NC(=O)C(CC(C)C)NC(=O)C(=O)Cc1c[nH]c2ccccc12)C(=O)O (centres unmarked) [Compound 34]	>10	
CCCCC(NC(=O)C(CC(C)C)NC(=O)C(NC(=O)C(=O)Cc1c[nH]c2ccccc12)C(C)O)C(=O)O (centres unmarked) [Compound 123]	>10	
CC(C)CC(NC(=O)C(NC(=O)C(=O)Cc1c[nH]c2ccccc12)C(C)C)C(=O)NC(CC(=O)O)C(=O)O (centres unmarked) [Compound 141]	>10	

Next, values leading:

IC50 for the inhibition of the chymotrypsin-like activity of 20S proteasome [µg/mL]	IC50 [µM]	SMILES
>10		CC(C)CC(NC(=O)C(Cc1ccc(-c2ccccc2)cc1)NC(=O)C(=O)Cc1c[nH]c2ccccc12)C(=O)NC(Cc1ccccc1)C(=O)O (centres unmarked) [Compound 175]
>10		CCCC(NC(=O)C(=O)Cc1c[nH]c2ccccc12)C(=O)NC(CC(C)C)C(=O)NC(CO)C(=O)O (centres unmarked) [Compound 97]
>10		CC(C)CC(NC(=O)C(Cc1ccc(-c2ccccc2)cc1)NC(=O)C(=O)Cc1c[nH]c2ccccc12)C(=O)NC(CCC(N)=O)C(=O)O (centres unmarked) [Compound 186]
>10		CC(C)CC(NC(=O)C(NC(=O)C(=O)Cc1c[nH]c2ccccc12)C(C)C)C(=O)NC(Cc1ccccc1)C(=O)O (centres unmarked) [Compound 111]
>10		CC(C)CC(NC(=O)C(Cc1ccc2ccccc2c1)NC(=O)C(=O)Cc1c[nH]c2ccccc12)C(=O)NCC(=O)O (centres unmarked) [Compound 65]
>10		CC(C)CC(NC(=O)C(Cc1ccc2ccccc2c1)NC(=O)C(=O)Cc1c[nH]c2ccccc12)C(=O)NC(Cc1c[nH]cn1)C(=O)O (centres unmarked) [Compound 204]
>10		CC(C)CC(NC(=O)C(Cc1cccnc1)NC(=O)C(=O)Cc1c[nH]c2ccccc12)C(=O)NC(CCC(=O)O)C(=O)O (centres unmarked) [Compound 161]
	> 18.4	CCCC[C@H](NC(=O)[C@@H](CC(C)C)NC(=O)[C@H](CC(=O)O)NC(=O)C(=O)Cc1c[nH]c2ccccc12)C(=O)O [Compound 125]
>10		CC(C)CC(NC(=O)C(Cc1ccccc1)NC(=O)C(=O)Cc1c[nH]c2ccccc12)C(=O)NC(C)C(=O)O (centres unmarked) [Compound 70]
>10		CC(C)CC(NC(=O)C(=O)Cc1c[nH]c2ccccc12)C(=O)NC(Cc1ccccc1)C(=O)O (centres unmarked) [Compound 182]
>10		CC(C)CC(NC(=O)C(Cc1ccc2ccccc2c1)NC(=O)C(=O)Cc1c[nH]c2ccccc12)C(=O)NC(C(=O)O)C(C)C (centres unmarked) [Compound 50]
	> 19.3	CC(C)C[C@@H](NC(=O)C(=O)Cc1c[nH]c2ccccc12)C(=O)N[C@H](CC(C)C)C(=O)NCc1ccccc1 [Compound 3]
>10		CC(C)CC(NC(=O)C(NC(=O)C(=O)Cc1c[nH]c2ccccc12)C(C)C)C(=O)NC(CCC(=O)O)C(=O)O (centres unmarked) [Compound 156]
>10		CC(C)CC(NC(=O)C(Cc1ccc(-c2ccccc2)cc1)NC(=O)C(=O)Cc1c[nH]c2ccccc12)C(=O)NC(C(=O)O)C(C)C (centres unmarked) [Compound 165]
>10		CCCC(NC(=O)C(=O)Cc1c[nH]c2ccccc12)C(=O)NC(CC(C)C)C(=O)NC(CC(=O)O)C(=O)O (centres unmarked) [Compound 142]
>10		CC(C)CC(NC(=O)C(NC(=O)C(=O)Cc1c[nH]c2ccccc12)C(C)O)C(=O)NC(CCC(=O)O)C(=O)O (centres unmarked) [Compound 153]
>10		CC(C)CC(NC(=O)C(Cc1ccc(-c2ccccc2)cc1)NC(=O)C(=O)Cc1c[nH]c2ccccc12)C(=O)NC(C(=O)O)c1ccccc1 (centres unmarked) [Compound 194]
>10		CC(C)CC(NC(=O)C(Cc1ccc(O)cc1)NC(=O)C(=O)Cc1c[nH]c2ccccc12)C(=O)NCC(=O)O (centres unmarked) [Compound 61]
>10		CC(C)CC(NC(=O)C(Cc1cccnc1)NC(=O)C(=O)Cc1c[nH]c2ccccc12)C(=O)NC(CO)C(=O)O (centres unmarked) [Compound 101]
>10		CC(C)CC(NC(=O)C(NC(=O)C(=O)Cc1c[nH]c2ccccc12)C(C)O)C(=O)NC(Cc1ccccc1)C(=O)O (centres unmarked) [Compound 108]
>10		CCC(C)C(NC(=O)C(=O)Cc1c[nH]c2ccccc12)C(=O)NC(CC(C)C)C(=O)NC(CCC(=O)O)C(=O)O (centres unmarked) [Compound 159]
